Results from patent US20100173935A1, “Muscarinic Receptor Agonists that are Effective in the Treatment of Pain, Alzheimer's Disease and Schizophrenia” (AstraZeneca AB, priority 2006, published 2010).

The molecules below were run against T1, hM1 (human Muscarinic receptor subtype 1) (Homo sapiens, UniProt P11229) (assay: Human M1 calcium mobilization FLIPR assay). Settings: CHO cells expressing hM1, Ca2+ release.
T1 construct: expressed in transfected cells; host or cells: CHO cells (ATCC)
T1 sequence (P11229 1-460): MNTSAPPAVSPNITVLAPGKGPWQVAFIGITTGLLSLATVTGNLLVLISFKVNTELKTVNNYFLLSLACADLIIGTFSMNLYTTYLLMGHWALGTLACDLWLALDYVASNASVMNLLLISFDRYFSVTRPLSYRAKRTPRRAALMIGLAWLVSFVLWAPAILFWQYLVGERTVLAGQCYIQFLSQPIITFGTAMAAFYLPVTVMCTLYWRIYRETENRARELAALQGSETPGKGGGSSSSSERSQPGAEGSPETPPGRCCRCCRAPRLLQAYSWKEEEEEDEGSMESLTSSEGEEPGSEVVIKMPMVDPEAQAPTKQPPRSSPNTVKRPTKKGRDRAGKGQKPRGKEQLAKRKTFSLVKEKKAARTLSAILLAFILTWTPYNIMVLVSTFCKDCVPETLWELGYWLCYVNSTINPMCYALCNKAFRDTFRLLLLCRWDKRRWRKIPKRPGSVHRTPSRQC
Assay type: cell-based
Procedure: The compound activity in the present invention (EC50 or IC50) was measured using a 384 plate-based imaging assay that monitors drug induced intracellular Ca^2+ release in whole cells. Activation of hM1 (human Muscarinic receptor subtype 1, gene bank access NM_000738), rM1 (rat Muscarinic receptor subtype 1, gene bank access NM_080773), hM3 (human Muscarinic receptor subtype 3, gene bank access NM_000740NM_000740) and hM5 (human Muscarinic receptor subtype 5, gene bank access NM_0121258), receptors expressed in CHO cells (chinese hamster ovary cells, ATCC) was quantified in a Molecular Devices FLIPR II™ instrument as an increase in fluorescent signal. Inhibition of hM3 and hM5 by compounds was determined by the decrease in fluorescent signal in response to 20 nM carbachol activation.
CHO cells were plated in 384-black polylysine coated plate (Costar) at 8000 cells/well/50 μl for 24 hours or 4000 cells/well for 48 hours in a humidified incubator (5% CO2 and 37° C.) in DMEM/F12 medium without selection agent. Prior to the experiment the cell culture medium was removed from the plates by inversion. A loading solution of 30 μl of Hank's balanced salt solution, 10 mM Hepes and 2.5 mM Probenicid at Ph 7.4 (Cat no. 311-520-VL, Wisent) with 2 μM calcium indicator dye (FLUO-3AM, Molecular Probes F14202) was added to each well. Plates were incubated at 37° C. for 60 minutes prior to start the experiment. The incubation was terminated by washing the cells four times in assay buffer, leaving a residual 25 μl buffer per well. Cell plates were then transferred to the FLIPR, ready for compound additions.
The day of experiment, carbachol and compounds were diluted in three-fold concentration range (10 points serial dilution) for addition by FLIPR instrument. For all calcium assays, a baseline reading was taken for 30 seconds followed by the addition of 12.5 μl (25 μl for hM1 and rM1) of compounds, resulting in a total well volume of 37.5 μl (50 μl for hM1 and rM1). Data were collected every 1.6 seconds for 300 seconds. For hM3 and hM5 an additional 12.5 μl of carbachol (20 nM final) was added at 300 seconds. After this addition of carbachol (producing a final volume of 50 μl), the FLIPR continued to collect data every 2 seconds for 240 seconds. The fluorescence emission was read using filter 1 (emission 520-545 nm) by the FLIPR on board CCD camera.
Calcium mobilization output data were calculated as the maximal relative fluorescence unit (RFU) minus the minal value for both compound and agonist reading frame (except for hM1 and rM1 using only the maximal RFU). Data were analyzed using sigmoidal fits of a non-linear curve-fitting program (XLfit version 5.0.6 from ID Business Solutions Limited, Guildford, UK). All EC50 and IC50 values are reported as arithmetic means±standard error of mean of ‘n’ independent experiments.

Row | Compound | EC50 [nM]
1 | CCOC(=O)N1CCC(N2CCC(=C3C(=O)Nc4ccccc43)CC2)C1 (centres unmarked) [Example 12, Ethyl 3-[4-(2-oxo-1,2-dihydro-3H-indol-3-ylidene)piperidin-1-yl]pyrrolidine-1-carboxylate] | 2690
2 | CCOC(=O)N1CCC(N2CCC(n3c(=O)n(C)c4ccccc43)CC2)C1 (centres unmarked) [Example 10, Ethyl 3-[4-(3-methyl-2-oxo-2,3-dihydro-1H-benzimidazol-1-yl)piperidin-1-yl]pyrrolidine-1-carboxylate] | 286
3 | CCOC(=O)N1CC[C@H](N2CCC(n3c(=O)[nH]c4ccc(C)cc43)CC2)C1 (single isomer, unassigned) [Example 37] | 0.6
4 | Cn1cccc1C(=O)N1CC[C@H](N2CCC(n3c(=O)[nH]c4ccccc43)CC2)C1 [Example 21, 1-(1-{(3S)-1-[(1-methyl-1H-pyrrol-2-yl)carbonyl]pyrrolidin-3-yl}piperidin-4-yl)-1,3-dihydro-2H-benzimidazol-2-one] | 1180
5 | CCOC(=O)N1CCC(N2CCC(n3nnc4ccccc43)CC2)C1 (centres unmarked) [Example 11, ethyl 3-[4-(1H-1,2,3-benzotriazol-1-yl)piperidin-1-yl]pyrrolidine-1-carboxylate] | 612
6 | CCOC(=O)N1CC[C@H](N2CCC(n3c(=O)[nH]c4ccc(OC)cc43)CC2)C1 (single isomer, unassigned) [Example 39] | 21.9
7 | CCOC(=O)N1CCC(N2CCC(n3c(=O)[nH]c4ccc(C)cc43)CC2)C1 (single isomer, unassigned) [Example 38] | 7.9
8 | CCOC(=O)N1CCC(N2C3CCC2CC(n2c(=O)[nH]c4ccccc42)C3)C1 (centres unmarked) [Example 30, Ethyl 3-[3-(2-oxo-2,3-dihydro-1H-benzimidazol-1-yl)-8-azabicyclo[3.2.1]oct-8-yl]pyrrolidine-1-carboxylate] | 518
